Measured values: publication PMC3272785 (2011)

What was measured:
[1] = target: T1, yeast cytosine deaminase (yCD) (Saccharomyces cerevisiae, UniProt Q12178); experiment: fluorometric titration; assay type: binding
T1 sequence (Q12178 6-158): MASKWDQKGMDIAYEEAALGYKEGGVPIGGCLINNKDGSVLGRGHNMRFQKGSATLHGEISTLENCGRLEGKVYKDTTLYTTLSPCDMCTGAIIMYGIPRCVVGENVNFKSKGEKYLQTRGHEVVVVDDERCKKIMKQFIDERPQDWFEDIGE

[2] = target: T2, yeast cytosine deaminase (yCD) (Saccharomyces cerevisiae, UniProt Q12178, E64D); experiment: radiometric 5FC deamination inhibition assay; assay type: biochemical
T2 sequence (Q12178 6-158 E64D): T1 sequence (Q12178 6-158)

With Oc1ncc(F)cn1 [5FPy, 5-fluoro-1H-pyrimidin-2-one] as the molecule, how does the Kd [1] read?
Its Kd is 0.65 ± 0.08 µM.

And the Ki [2]?
Its Ki is 1060 ± 60 µM.
